According to ChEMBL document CHEMBL3608305, “Synergistic activation of quorum sensing in Vibrio harveyi” (Bioorg Med Chem Lett, 2015):
Activity calls are given as the source filed them. No cut-off for these calls is given here.

What was measured:
[1] = molecular target: Autoinducer 2-binding periplasmic protein LuxP (Vibrio harveyi) (UniProt P54300); assay: (§1) Binding affinity to LuxP in Vibrio harveyi MM32 assessed as activation of quorum sensing system after 5 hrs by bioluminescence assay in presence of exogenous synthetic DPD
[2] = molecular target: Autoinducer 2-binding periplasmic protein LuxP (Vibrio harveyi, UniProt P54300); assay: as §1
Vibrio harveyi = assay: Toxicity in Vibrio harveyi MM32 at >5 uM; format: organism-based; details: in vivo
[3] = molecular target: Autoinducer 2-binding periplasmic protein LuxP (Vibrio harveyi) (UniProt P54300); assay: Binding affinity to LuxP in Vibrio harveyi MM32 assessed as activation of quorum sensing system at 1.5 to 100 uM after 5 hrs by bioluminescence assay in absence of exogenous synthetic DPD
[4] = molecular target: Autoinducer 2-binding periplasmic protein LuxP (Vibrio harveyi) (UniProt P54300); assay: Binding affinity to LuxP in Vibrio harveyi BB120 assessed as activation of quorum sensing system after 6 hrs by bioluminescence assay; details: Vibrio campbellii ATCC BAA-1116

Chain of Autoinducer 2-binding periplasmic protein LuxP (Vibrio harveyi) (P54300 whole entry): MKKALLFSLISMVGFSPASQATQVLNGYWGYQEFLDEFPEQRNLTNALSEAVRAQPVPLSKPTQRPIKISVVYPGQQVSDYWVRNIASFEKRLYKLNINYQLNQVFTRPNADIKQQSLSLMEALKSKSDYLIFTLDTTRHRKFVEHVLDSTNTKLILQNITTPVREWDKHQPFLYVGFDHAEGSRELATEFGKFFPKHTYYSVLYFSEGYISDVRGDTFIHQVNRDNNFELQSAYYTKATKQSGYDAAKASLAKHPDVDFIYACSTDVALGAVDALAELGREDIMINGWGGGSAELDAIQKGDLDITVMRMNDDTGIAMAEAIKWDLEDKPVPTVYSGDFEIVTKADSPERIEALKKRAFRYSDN
Chain of Autoinducer 2-binding periplasmic protein LuxP (P54300 whole entry): as above

Activity [1]: Dose-dependent effect
EC50 [2]: 20 µM
Activity [3]: inactive
Activity [4]: Dose-dependent effect
Compound: O=C(Cc1ccc2ccccc2c1)C(=O)[C@@H](O)CO
Activity (Vibrio harveyi): Toxic
